Laboratory results reported in ChEMBL document CHEMBL1201862, “PubChem BioAssay data set” (2004).
Active and inactive are the calls of the source.

Assays:
[1] = biological target: T1, Cytochrome P450 2D6 (Homo sapiens, UniProt P10635); test: qHTS Assay for Inhibitors and Substrates of Cytochrome P450 2D6. [Related pubchem assays: 410 ]; type: ADME; conditions: read-out: Potency
[2] = biological target: T2, Mucolipin-3 (Homo sapiens, UniProt Q8TDD5); test: Dose response cell-based high-throughput screening assay for agonists of the transient receptor potential channel ML3 (TRPML3). [Related pubchem assays: 1526, 1424, 1448 ]; type: functional
T2 sequence (Q8TDD5 whole entry): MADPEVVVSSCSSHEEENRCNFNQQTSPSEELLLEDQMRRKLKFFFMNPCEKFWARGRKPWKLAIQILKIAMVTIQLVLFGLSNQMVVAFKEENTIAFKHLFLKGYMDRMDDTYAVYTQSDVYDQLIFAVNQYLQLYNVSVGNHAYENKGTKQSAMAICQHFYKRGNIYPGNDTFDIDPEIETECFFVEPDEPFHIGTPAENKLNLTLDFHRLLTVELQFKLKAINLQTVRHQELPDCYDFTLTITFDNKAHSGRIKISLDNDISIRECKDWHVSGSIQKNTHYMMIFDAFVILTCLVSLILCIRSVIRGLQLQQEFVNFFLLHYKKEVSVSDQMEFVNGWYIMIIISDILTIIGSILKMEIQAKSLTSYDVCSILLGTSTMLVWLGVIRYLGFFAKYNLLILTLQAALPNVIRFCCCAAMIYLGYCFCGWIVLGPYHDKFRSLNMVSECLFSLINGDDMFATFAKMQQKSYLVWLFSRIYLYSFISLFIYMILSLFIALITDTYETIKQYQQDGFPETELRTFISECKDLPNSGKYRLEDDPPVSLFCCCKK

[3] = biological target: Ion channel NompC (Danio rerio, UniProt Q7T1G6); test: Fluorescence counterscreen assay for TRPML3 agonists: dose response cell-based high-throughput screening assay to identify agonists of the transient receptor potential channel N1 (TRPN1). [Related pubchem assays: 1526, 1424, 1448 ]; type: functional
[4] = biological target: T3, Estrogen receptor beta (Homo sapiens, UniProt Q92731);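 also: recombinant ER-beta bound to coactivator SRC1 peptide in presence of estradiol agonist; inhibitors block coactivator peptide binding and lower the FRET signal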
[5] = biological target: T3, Estrogen receptor beta; test: blockers of SRC-3 recruitment to ERβ – biochemical, ELISA, streptavidin-HRP readout, orthogonal assay, confirmation (AID 1060)
[6] = biological target: T4, Aminopeptidase N (Plasmodium falciparum FcB1/Columbia, UniProt O96935); test: malaria alanyl aminopeptidase activity blockers – biochemical, fluorogenic H-Leu-NHMec substrate, 1536-well (AID 1445); set-up: species or system Plasmodium falciparum 3D7, 3D7
T4 sequence (O96935 whole entry): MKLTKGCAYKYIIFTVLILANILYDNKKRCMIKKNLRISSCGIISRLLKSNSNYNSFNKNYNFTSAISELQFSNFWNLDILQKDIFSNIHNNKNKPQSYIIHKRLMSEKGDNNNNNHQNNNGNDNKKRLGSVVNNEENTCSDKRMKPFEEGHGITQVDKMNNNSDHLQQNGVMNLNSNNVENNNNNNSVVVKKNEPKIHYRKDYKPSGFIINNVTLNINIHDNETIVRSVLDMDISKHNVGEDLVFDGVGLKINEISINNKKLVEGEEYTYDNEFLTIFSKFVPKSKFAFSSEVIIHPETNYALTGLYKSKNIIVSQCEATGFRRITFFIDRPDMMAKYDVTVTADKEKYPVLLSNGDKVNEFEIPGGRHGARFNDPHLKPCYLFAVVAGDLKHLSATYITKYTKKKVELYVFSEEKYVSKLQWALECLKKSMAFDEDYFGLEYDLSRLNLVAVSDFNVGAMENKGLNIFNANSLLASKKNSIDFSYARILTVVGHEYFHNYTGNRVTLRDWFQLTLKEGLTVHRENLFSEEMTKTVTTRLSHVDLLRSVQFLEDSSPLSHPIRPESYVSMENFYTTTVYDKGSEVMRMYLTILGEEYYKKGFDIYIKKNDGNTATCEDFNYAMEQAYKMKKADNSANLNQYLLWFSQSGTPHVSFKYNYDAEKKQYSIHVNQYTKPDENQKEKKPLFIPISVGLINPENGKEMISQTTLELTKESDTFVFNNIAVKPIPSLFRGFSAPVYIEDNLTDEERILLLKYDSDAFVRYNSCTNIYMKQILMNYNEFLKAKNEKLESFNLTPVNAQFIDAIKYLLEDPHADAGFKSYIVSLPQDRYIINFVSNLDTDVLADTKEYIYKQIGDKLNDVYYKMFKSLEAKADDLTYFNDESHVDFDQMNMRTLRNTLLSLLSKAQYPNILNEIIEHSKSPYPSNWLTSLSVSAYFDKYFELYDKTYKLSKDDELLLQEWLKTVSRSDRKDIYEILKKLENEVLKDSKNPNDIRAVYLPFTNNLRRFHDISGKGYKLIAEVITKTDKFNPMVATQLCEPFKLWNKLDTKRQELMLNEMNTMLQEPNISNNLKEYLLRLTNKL

[7] = biological target: Eukaryotic translation initiation factor 4H (Homo sapiens, UniProt Q15056); test: eIF4H binding inhibition – biochemical, uHTS, fluorescence polarization, translation initiation inhibitor project, primary screen (AID 2012)
[8] = biological target: Polyadenylate-binding protein 1 (Homo sapiens, UniProt P11940); test: blockers of PABP interaction with poly(A) – biochemical, fluorescence polarization, […] (AID 2014)
[9] = biological target: FAD-linked sulfhydryl oxidase ALR (Homo sapiens, UniProt P55789); test: ALR-catalysed DTT oxidation blockers – biochemical, H2O2 detection, luminescence, cherry-pick, dose response (AID 493248)
[10] = biological target: Cytochrome P450 3A4 (Homo sapiens, UniProt P08684); conditions: Potency;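 also: confirmatory qHTS run detecting inhibitors and substrates of CYP3A4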
[11] = biological target: Large T antigen (Simian virus 40, UniProt P03070); type: functional, Betapolyomavirus macacae;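 also: Confirmatory-stage PubChem screen for compounds that inhibit SV40 T antigen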
[12] = biological target: Glucose-6-phosphate 1-dehydrogenase (Homo sapiens, UniProt P11413); test: inhibition of Homo sapiens G6PD, dose series – biochemical, fluorescence, selectivity assay for P. falciparum G6PD inhibitor project, dose response (AID 504792); type: functional
[13] = biological target: Peroxisome proliferator-activated receptor gamma/Nuclear receptor coactivator 3 (Homo sapiens, UniProt P37231); type: functional;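 also: agonist potency for raising coactivator recruitment to the receptor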
[14] = biological target: Peroxisome proliferator-activated receptor gamma/Nuclear receptor coactivator 1 (Homo sapiens, UniProt P37231); type: functional;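 also: agonist potency as compounds enhance coactivator SRC-1 recruitment to PPARgamma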
[15] = biological target: Peroxisome proliferator-activated receptor gamma/Nuclear receptor coactivator 2 (Homo sapiens, UniProt P37231); type: functional;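 also: agonist potency for raising coactivator recruitment to the receptor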
[16] = biological target: T5, Heat shock factor protein 1 (Mus musculus, UniProt P38532); test: enhancement of HSF1-driven luciferase signal – cell-based, NIH3T3, luminescence, dose retest, confirmation (AID 435004); type: functional;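 also: stress induced by proteasome inhibitor MG132 added 30 min after compound; luciferase reporter driven by HSF1 response element in NIH3T3 cells; actives raise luminescence as potentiators of the MG132 stress response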
T5 sequence (P38532 whole entry): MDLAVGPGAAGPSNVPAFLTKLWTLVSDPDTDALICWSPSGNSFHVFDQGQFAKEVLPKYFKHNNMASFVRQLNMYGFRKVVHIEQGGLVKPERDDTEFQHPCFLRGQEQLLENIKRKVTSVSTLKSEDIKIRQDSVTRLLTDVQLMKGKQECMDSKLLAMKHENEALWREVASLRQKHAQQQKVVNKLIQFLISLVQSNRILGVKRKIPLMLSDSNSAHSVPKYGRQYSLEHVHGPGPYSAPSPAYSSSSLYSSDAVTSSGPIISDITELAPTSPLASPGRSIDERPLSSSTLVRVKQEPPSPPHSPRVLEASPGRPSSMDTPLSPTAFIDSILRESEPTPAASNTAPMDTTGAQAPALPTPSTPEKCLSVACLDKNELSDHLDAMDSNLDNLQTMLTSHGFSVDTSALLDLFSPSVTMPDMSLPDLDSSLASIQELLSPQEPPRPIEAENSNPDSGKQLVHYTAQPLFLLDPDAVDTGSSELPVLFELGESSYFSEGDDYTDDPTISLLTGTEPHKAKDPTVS

[17] = biological target: Protein-tyrosine kinase 2-beta (Homo sapiens, UniProt Q14289);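 also: potency of inhibitors of PYK2 kinase phosphorylation of poly-GT substrate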
[18] = Trypanosoma cruzi growth suppression in host cells – NIH3T3 host cells, beta-gal luminescence, confirmation (AID 2044); type: functional, cell-based;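 also: intracellular parasites grown in NIH/3T3 mouse fibroblasts as host cells; luminescent beta-galactosidase reporter signal from transgenic T. cruzi replicating inside host cells; inhibitors lower the luminescence signal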
[19] = system: Streptococcus; test: GAS UMAA2166 growth inhibition – luminescence, BacTiterGlo, counter-screen for streptokinase expression inhibitor project, dose response (AID 1915); type: functional, organism-based;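 also: potency for reduction of bacterial viability or growth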
[20] = system: Streptococcus sp. 'group A'; test: Streptococcus pyogenes SK(-)GAS viability under kanamycin – luminescence, BacTiterGlo, confirmation, counter-screen for streptokinase expression inhibitor project, dose response (AID 1900); type: functional, organism-based
[21] = NIH3T3 cell viability loss – ATP luminescence, mouse fibroblasts, counter-screen, dose response (AID 2010); type: functional, cell-based;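 also: cells exposed to compound for about 90 hours before reading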
[22] = biological target: T6, Streptokinase A (Streptococcus pyogenes serotype M1, UniProt P10520); test: viability-normalized secreted streptokinase activity reduction – plasminogen activation absorbance, OD405, dose response (AID 1914); type: functional, Streptococcus pyogenes M1 GAS;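 also: secreted streptokinase activity via plasminogen activation per viability signal from cell pellet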
T6 sequence (P10520 whole entry): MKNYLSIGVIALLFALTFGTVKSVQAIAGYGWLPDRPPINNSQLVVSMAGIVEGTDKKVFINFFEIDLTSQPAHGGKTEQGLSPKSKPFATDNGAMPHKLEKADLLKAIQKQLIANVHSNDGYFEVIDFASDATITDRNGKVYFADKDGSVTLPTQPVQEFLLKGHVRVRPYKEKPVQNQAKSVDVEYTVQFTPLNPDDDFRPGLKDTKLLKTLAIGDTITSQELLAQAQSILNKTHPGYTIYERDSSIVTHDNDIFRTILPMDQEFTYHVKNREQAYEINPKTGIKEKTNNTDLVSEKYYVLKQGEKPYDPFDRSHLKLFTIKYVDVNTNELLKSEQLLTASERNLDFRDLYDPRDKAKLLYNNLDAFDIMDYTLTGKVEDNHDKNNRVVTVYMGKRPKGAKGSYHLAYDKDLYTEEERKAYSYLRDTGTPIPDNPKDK

[23] = biological target: T1, Cytochrome P450 2D6
[24] = biological target: Cytochrome P450 2C19 (Homo sapiens, UniProt P33261); test: Cytochrome panel assay with activity outcomes. Panel member name: p450-cyp2c19 Compounds with AC50 equal or less than 10 uM are considered active; type: functional; conditions: read-out: AC50

T1 sequence (P10635 whole entry): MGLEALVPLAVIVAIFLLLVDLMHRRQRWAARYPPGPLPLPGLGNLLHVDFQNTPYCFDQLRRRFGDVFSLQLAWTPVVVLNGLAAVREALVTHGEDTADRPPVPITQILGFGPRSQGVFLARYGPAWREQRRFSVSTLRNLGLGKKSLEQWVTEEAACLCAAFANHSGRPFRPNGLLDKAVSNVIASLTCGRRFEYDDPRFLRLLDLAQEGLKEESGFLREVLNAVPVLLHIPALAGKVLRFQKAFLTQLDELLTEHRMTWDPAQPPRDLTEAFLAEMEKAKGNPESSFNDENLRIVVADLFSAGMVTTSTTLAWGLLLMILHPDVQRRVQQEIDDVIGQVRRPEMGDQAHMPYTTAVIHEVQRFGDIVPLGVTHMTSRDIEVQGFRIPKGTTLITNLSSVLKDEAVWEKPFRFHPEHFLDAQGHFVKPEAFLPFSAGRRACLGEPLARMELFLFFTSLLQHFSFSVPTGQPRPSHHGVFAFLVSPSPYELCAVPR
Chain of Ion channel NompC (Q7T1G6 whole entry): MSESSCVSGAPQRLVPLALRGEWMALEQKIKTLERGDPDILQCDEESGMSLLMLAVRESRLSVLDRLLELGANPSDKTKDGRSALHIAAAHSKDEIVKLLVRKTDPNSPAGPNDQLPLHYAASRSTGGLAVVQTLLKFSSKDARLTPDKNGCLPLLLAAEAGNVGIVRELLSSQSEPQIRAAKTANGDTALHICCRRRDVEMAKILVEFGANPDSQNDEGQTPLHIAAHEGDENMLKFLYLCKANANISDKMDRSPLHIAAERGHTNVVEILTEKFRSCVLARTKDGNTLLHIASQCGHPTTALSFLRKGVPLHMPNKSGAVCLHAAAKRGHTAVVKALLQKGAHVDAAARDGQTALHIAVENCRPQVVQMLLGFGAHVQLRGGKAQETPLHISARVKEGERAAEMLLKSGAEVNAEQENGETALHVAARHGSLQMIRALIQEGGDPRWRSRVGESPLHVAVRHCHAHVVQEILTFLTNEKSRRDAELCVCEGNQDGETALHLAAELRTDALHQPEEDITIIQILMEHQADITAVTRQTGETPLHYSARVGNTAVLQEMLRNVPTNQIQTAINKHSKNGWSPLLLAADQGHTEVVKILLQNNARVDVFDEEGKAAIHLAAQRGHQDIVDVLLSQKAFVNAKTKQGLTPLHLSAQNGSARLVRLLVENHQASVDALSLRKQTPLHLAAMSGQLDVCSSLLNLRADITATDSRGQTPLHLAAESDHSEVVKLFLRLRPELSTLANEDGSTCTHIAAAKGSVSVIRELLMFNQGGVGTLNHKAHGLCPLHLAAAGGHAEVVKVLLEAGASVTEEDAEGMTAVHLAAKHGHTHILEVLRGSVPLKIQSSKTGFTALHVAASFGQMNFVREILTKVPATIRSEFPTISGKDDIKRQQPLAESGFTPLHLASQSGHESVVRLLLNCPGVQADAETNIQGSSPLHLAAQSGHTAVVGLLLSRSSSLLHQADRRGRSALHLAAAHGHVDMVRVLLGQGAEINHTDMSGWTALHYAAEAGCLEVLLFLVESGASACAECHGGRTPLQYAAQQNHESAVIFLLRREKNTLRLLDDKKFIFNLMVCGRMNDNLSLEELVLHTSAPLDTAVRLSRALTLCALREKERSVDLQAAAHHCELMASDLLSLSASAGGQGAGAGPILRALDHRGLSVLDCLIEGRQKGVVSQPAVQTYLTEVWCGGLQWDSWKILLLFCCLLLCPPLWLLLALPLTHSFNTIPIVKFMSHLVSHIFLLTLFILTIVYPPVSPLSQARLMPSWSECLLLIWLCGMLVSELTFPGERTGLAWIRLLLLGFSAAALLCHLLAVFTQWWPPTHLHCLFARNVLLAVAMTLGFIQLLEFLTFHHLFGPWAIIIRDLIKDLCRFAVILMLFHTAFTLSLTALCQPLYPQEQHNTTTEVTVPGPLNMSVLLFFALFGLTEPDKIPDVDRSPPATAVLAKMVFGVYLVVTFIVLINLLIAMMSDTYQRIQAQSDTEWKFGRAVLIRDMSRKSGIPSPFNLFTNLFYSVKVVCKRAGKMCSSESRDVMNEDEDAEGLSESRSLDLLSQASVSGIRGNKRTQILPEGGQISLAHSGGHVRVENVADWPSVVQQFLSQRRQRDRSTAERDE
Chain of Peroxisome proliferator-activated receptor gamma/Nuclear receptor coactivator 3 (P37231 whole entry): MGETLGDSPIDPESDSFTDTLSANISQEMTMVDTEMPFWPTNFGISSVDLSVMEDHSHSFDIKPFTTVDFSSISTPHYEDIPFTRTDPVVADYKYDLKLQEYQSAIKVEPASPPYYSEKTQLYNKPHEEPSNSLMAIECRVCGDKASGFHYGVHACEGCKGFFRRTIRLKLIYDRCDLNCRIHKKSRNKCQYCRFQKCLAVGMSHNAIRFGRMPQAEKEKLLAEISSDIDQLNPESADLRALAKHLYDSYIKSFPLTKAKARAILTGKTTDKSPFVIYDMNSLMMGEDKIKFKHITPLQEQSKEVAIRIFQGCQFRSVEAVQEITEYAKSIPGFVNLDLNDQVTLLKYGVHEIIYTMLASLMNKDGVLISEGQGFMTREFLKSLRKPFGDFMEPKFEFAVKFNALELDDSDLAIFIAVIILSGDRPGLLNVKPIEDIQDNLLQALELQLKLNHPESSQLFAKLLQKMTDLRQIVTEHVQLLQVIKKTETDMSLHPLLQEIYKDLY
Chain of Peroxisome proliferator-activated receptor gamma/Nuclear receptor coactivator 3 (Q9Y6Q9 whole entry, further chain): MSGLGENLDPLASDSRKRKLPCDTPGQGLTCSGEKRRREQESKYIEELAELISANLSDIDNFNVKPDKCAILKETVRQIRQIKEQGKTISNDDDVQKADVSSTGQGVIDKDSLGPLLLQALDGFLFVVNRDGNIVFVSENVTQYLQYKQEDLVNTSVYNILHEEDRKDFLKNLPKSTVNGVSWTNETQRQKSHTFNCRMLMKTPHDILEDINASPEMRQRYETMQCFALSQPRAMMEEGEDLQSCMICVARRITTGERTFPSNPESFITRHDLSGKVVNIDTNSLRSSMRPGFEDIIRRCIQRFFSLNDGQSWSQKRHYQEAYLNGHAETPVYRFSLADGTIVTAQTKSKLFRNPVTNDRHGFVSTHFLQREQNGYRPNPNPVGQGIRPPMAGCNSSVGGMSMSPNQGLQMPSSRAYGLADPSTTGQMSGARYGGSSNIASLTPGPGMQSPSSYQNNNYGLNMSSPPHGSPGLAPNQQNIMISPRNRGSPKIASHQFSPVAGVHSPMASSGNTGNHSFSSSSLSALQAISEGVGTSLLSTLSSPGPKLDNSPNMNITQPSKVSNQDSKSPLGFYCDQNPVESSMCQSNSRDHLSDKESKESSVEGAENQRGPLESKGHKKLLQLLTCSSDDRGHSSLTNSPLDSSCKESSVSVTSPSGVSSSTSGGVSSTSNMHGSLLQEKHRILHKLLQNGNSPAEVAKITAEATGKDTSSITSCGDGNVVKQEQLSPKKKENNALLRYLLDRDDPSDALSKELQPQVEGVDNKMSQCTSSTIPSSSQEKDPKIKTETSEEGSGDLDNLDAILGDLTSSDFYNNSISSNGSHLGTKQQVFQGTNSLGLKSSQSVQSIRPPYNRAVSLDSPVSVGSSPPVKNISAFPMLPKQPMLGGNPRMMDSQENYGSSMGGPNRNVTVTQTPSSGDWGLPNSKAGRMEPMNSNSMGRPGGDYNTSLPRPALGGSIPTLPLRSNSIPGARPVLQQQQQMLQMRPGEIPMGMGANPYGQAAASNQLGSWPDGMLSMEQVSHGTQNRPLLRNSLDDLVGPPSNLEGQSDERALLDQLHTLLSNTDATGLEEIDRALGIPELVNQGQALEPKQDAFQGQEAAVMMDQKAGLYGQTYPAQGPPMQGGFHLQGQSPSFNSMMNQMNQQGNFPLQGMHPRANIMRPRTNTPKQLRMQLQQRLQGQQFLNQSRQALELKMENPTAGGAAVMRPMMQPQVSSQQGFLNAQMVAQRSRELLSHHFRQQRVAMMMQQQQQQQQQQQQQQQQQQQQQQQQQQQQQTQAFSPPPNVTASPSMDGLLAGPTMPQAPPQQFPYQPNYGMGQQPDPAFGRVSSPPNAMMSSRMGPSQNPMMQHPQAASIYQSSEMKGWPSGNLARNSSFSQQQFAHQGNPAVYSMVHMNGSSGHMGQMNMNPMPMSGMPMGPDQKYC
T3 sequence (Q92731 whole entry): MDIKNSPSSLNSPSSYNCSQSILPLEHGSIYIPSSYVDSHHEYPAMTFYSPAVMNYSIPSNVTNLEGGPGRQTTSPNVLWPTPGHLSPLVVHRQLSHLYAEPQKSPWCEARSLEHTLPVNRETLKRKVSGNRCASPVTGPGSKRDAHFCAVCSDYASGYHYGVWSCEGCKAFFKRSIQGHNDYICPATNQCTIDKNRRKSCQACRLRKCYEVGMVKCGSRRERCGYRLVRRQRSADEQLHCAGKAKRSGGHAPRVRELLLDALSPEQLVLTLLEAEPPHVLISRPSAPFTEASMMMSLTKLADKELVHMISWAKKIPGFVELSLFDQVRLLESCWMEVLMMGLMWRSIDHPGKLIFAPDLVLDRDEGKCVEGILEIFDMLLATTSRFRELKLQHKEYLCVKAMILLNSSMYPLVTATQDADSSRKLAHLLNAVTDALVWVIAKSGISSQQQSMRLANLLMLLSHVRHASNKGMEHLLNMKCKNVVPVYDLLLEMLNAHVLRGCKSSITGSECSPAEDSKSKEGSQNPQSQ
Chain of FAD-linked sulfhydryl oxidase ALR (P55789 whole entry): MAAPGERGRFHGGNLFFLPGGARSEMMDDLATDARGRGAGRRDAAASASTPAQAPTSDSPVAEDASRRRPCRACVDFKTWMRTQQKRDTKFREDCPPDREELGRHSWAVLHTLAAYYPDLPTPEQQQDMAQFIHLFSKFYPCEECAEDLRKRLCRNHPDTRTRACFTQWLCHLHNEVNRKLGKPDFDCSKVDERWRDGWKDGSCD

O=C(CCCN1CCC2(CC1)C(=O)N(CCc1ccc(N=C=S)cc1)CN2c1ccccc1)c1ccc(F)cc1
AC50 [1]: 15.8 µM (inconclusive)

Cc1onc(-c2ccccc2)c1C(=O)N(Cc1ccco1)Cc1cccs1
EC50 [2]: 12.4 µM (not active)
EC50 [3]: > 29.9 µM (not active)

CC(=O)NC12CC3CC(C1)CC(C(=O)OCC(=O)Nc1ncc(Cl)c(C)c1Cl)(C3)C2
IC50 [4]: 9.36 µM (active)
IC50 [5]: < 0.023 µM (not active)

O=C1NC(=S)NC(=O)C1=NNc1cc2c(cc1[N+](=O)[O-])OCO2
IC50 [6]: 26.9 µM (active)

C[N+]1(C)C2CCC1CC(OC(=O)c1ccco1)C2 (configuration not stated)
IC50 [7]: > 100 µM (inactive)
IC50 [8]: 7.77 µM (active)

O=C(c1ccco1)N1CCN=C1SCc1cccnc1
AC50 [9]: 1.19 µM (active)

CCN(CCNS(=O)(=O)c1ccc2nc(O)sc2c1)c1ccccc1
AC50 [9]: 1.17 µM (active)

COc1ccc(S(=O)(=O)NC2CCCCC2)c(C)c1C
EC50 [2]: > 3.32 µM (not active)
EC50 [3]: > 29.9 µM (not active)

CC12C=C(/C=C/c3ccccc3)C(C)(C1)C(c1ccccc1)CC2=O (configuration not stated)
AC50 [1]: 3.16 µM (inconclusive)
AC50 [10]: 3.16 µM (inconclusive)

O=C(CN1CCN(c2ccc(O)cc2)CC1)Nc1cc(S(=O)(=O)N2CCOCC2)ccc1Cl
IC50 [7]: 72.2 µM (active)
IC50 [8]: > 100 µM (inactive)
IC50 [11]: 17 µM (active)
IC50 [12]: > 80 µM (inactive)

O=C(Nc1ccc2oc(-c3ccncc3)nc2c1)c1c(F)c(F)c(F)c(F)c1F
EC50 [13]: 28.9 µM (not active)
EC50 [14]: 25.8 µM (not active)
EC50 [15]: 25.6 µM (not active)

CC1(c2ccc(OC(F)F)cc2)NC(=O)N(CC(=O)Nc2ccc(S(N)(=O)=O)cc2)C1=O (configuration not stated)
IC50 [6]: 28.3 µM (active)

Cc1csc(C(C#N)C(=O)c2ccncc2)n1 (configuration not stated)
IC50 [4]: 13.9 µM (active)
EC50 [13]: > 79.4 µM (not active)
EC50 [14]: > 79.4 µM (not active)
EC50 [15]: > 79.4 µM (not active)
IC50 [5]: > 109 µM (not active)

CCOC(=O)c1sc2c(c1C)C(c1cccs1)C1=C(O)CCCC1=N2 (configuration not stated)
EC50 [16]: 80.5 µM (active)
IC50 [17]: > 69.5 µM (not active)

CCC(=O)NC(=S)Nc1ccc(NC(=S)NC(=O)c2ccccc2)cc1
EC50 [18]: 0.553 µM (active)
EC50 [19]: 38 µM (active)
EC50 [13]: > 79.4 µM (not active)
EC50 [14]: > 79.4 µM (not active)
EC50 [15]: > 79.4 µM (not active)
EC50 [20]: 1.23 µM (active)
EC50 [21]: > 60 µM (not active)
EC50 [22]: > 150 µM (not active)

CC1(C)Cc2cccc(Oc3ccc(S(=O)(=O)N4CCCCC4)cn3)c2O1
EC50 [2]: 9.27 µM (active)
EC50 [3]: > 29.9 µM (not active)

Cc1cc2nc3c(=O)[nH]c(=O)nc-3n(CC(O)C(O)C(O)CO)c2cc1C (configuration not stated) [RIBOFLAVIN]
AC50 [23]: 12.6 µM (inconclusive)
AC50 [1]: 31.6 µM (inconclusive)
AC50 [24]: 6.31 µM (inconclusive)
